Results published in publication PMC6327987, “Synthesis and biological evaluation of novel N^9-heterobivalent β-carbolines as angiogenesis inhibitors” (Journal of Enzyme Inhibition and Medicinal Chemistry, 2019).
Where “and” joins values, the source holds several entries; their conditions need not be identical. Equal entries are not always repeated. Entries after “also recorded” stand apart in the source; their conditions may differ. Where two headings read alike, the source gives them in different places.

Experiments:
BGC-823 = experiment: MTT cytotoxicity, gastric carcinoma cells; assay type: cell-based; details: Homo sapiens; MTT assay, gastric carcinoma BGC-823, mean ± SD of at least three determinations
Description: (§1) Target compounds were assayed by the MTT method for cytotoxic activity, as described previously. The panel of cell lines included gastric carcinoma (BGC-823), liver carcinoma (HepG2), breast carcinoma (MCF-7), colon carcinoma (HT-29), esophageal carcinoma (Eca-109), and Lewis lung carcinoma (LLC). Growth inhibition rates were calculated with the following equitation: Inhibition ratio (%)= ODcompd−ODblank/ODDMSO−ODblank×100% . Half maximal inhibitory concentration (IC50) of each compound was calculated using software Graph-Pad Prism (version 6.0).
(§2) All the 24 novel synthesized N^9-heterobivalent β-carbolines (5a-x) were screened for their in vitro cytotoxic activities against six different cancer cell lines, namely BGC-823 (gastric carcinoma), HepG2 (liver carcinoma), MCF-7 (breast carcinoma), HT-29 (colon carcinoma), Eca-109 (esophageal carcinoma) and LLC (Lewis lung carcinoma). The IC50 values were the average of at least three independent experiments.

[1] = test system: six tumor cell lines (BGC-823, HepG2, MCF-7, HT-29, Eca-109, LLC); experiment: MTT cytotoxicity, panel of six tumour cell lines (summary statements); assay type: cell-based; details: MTT assay, statement over all cell lines tested; read-out: IC50 against the tested six tumor cell lines
Description: as §1, §2

HT-29 = experiment: MTT cytotoxicity, colon carcinoma cells; assay type: cell-based; details: Homo sapiens; MTT assay, colon carcinoma HT-29, mean ± SD of at least three determinations
Description: as §1, §2

Eca-109 = experiment: MTT cytotoxicity, esophageal carcinoma cells; assay type: cell-based; details: Homo sapiens, ECa-109, MTT assay, esophageal carcinoma Eca-109, mean ± SD of at least three determinations
Description: as §1, §2

HepG2 = experiment: MTT cytotoxicity, liver carcinoma cells; assay type: cell-based; details: Homo sapiens; MTT assay, liver carcinoma HepG2, mean ± SD of at least three determinations
Description: as §1, §2

LLC = experiment: MTT cytotoxicity, Lewis lung carcinoma cells; assay type: cell-based; details: Lewis lung carcinoma, MTT assay, mean ± SD of at least three determinations
Description: as §1, §2

MCF-7 = experiment: MTT cytotoxicity, breast carcinoma cells; assay type: cell-based; details: Homo sapiens, MCF7; MTT assay, breast carcinoma MCF-7, mean ± SD of at least three determinations
Description: as §1, §2

angiogenesis of CAM = experiment: Chicken chorioallantoic membrane (CAM) angiogenesis assay; assay type: in vivo; details: gelatin sponge discs 0.5, 5.0 and 50 µM/disc, 48 h, blood vessels counted
Description: Anti-angiogenic activity of the selected compounds 5b and 5w were investigated in vivo using a CAM assay. Five-day-old fertilized eggs were obtained from a local hatchery. We injected 5 ml of albumin, and the eggs were incubated horizontally to allow the CAM to detach from the shell to produce a sham chamber. Compounds 5b and 5w were prepared in gelatin sponge discs (5 × 5 × 5 mm^3) at the concentration of 0.5, 5.0, and 50 µM/disc, respectively. CA4P was used as the positive control drug. Discs containing the vehicle only (DMSO) were used as the negative control. A small window opening was made in the shell, and the discs were directly applied onto the CAM. The square opening was covered with sterilized surgical tape and the embryos were incubated for 48 h at 38.5 °C. The CAMs were photographed under a dissecting microscope and blood vessels in each CAM were counted. The results are presented as a mean percentage of inhibition to the control ± SD, (n = 3).
The anti-angiogenetic activity of compounds 5b and 5w were semi-quantitatively analyzed using Graph Pad Prism 5.0 (shown in Figure 2(B)).

KM mice [2] = experiment: Acute toxicity in mice (i.p.); assay type: in vivo; details: for Acute toxicity Neurotoxic effect: KM mice, intraperitoneal; for Acute toxicity LD50: both, KM, mouse, in vivo, ip, 14 days
Description: Specific pathogen-free KM mice (6–8 weeks old) weighing 19–22 g were housed in a mouse room at 24 ± 2 °C and 60–70% humidity with 12 h light/dark cycles. The mice were provided rodent laboratory chow pellets and tap water for a week to adapt to the environment of the mouse room. The experimental protocol was approved by the Institutional Animal Ethical Committee, and all of the animals were provided by Laboratory Animal Center of Xinjiang Uygur Autonomous Region. Prior to each experiment, mice were fastened overnight and allowed free access to water. Various doses of the asymmetric dimeric β-carboline derivatives, ranging from 5.0 to 500 mg kg^−1 dissolved in 0.5% carboxymethyl cellulose sodium (CMC-Na) salt solution, were given intraperitoneally to different groups of healthy KM mice, and each group contained 10 mice (5 males and 5 females). After the administration of the compounds, the mice were observed continuously for the first 2 h for any gross behavioral changes and deaths, then intermittently for the next 24 h, and occasionally thereafter for 14 days, and for the onset of any delayed effects. All of the animals were killed on the 14th day after drug administration, and they were checked macroscopically for possible damage to the heart, liver, and kidneys. Mice that experienced immediate death following drug administration were also examined for any possible organ damage. LD50 values were calculated graphically as described.
The LD50 values of the selected N^9-heterobivalent β-carbolines in mice after intraperitoneal (i.p.) administration are shown in Table 2. […] Death occurred mostly in the high dosage group within 4–8 h after injection. All of the surviving animals returned to normal within the next day.

Sarcoma 180 [3] = experiment: In vivo antitumor activity, Sarcoma 180-bearing mice; details: i.p. once a day for seven days at the dosage of Table 2 (about one-fifth of LD50; CTX 30 mg kg^−1), tumour weight day 21, mean ± SD
Description: (§3) Sarcoma180 and Lewis lung cancer cell lines were provided by Shanghai Institute of Pharmaceutical Industry. Mice were inoculated with Sarcoma180 and Lewis lung cancer tumour cells. After 7 days, the tumours were removed and the cells were harvested. Mice received subcutaneous injections of viable tumour cells (2 × 10^6 cells/mouse) in the armpit. […] CTX at 30 mg kg^−1 was used as the positive control and the vehicle as the negative control. The weight of the animals was recorded every three days. All of the animals were killed on the 21st day after tumour inoculation, and the tumours were excised and weighed. The inhibition rate was calculated as follows: (C−T)/C×100 where T is the average tumor weight of the treated group and C is the average tumor weight of the negative control group.

Sarcoma 180 [4] = test system: Sarcoma 180; design: method as in PMID 12620075; details: mice, dosage 40 mg kg^−1; cited from earlier work
Lewis lung cancer [5] = test system: Lewis lung cancer; design: method as in PMID 12620075; details: mice, dosage 40 mg kg^−1; cited from earlier work
KM mice [6] = details: mouse, in vivo; cited from earlier work
Lewis lung cancer [7] = experiment: In vivo antitumor activity, Lewis lung cancer-bearing mice; details: i.p. once a day for seven days at the dosage of Table 2 (about one-fifth of LD50; CTX 30 mg kg^−1), tumour weight day 21, mean ± SD
Description: as §3

| melting point [°C] | SMILES | IC50 (BGC-823) [µM] | IC50 [1] [µM] | IC50 (HT-29) [µM] | IC50 (Eca-109) [µM] | IC50 (HepG2) [µM] | IC50 (LLC) [µM] | IC50 (MCF-7) [µM] | Anti-angiogenic effect in CAM assay (in words) (angiogenesis of CAM) | Acute toxicity Neurotoxic effect (KM mice [2]) | Acute toxicity LD50 (KM mice [2]) [mg/kg] | Tumor inhibition rate (%) Sarcoma 180 (Sarcoma 180 [3]) | Tumor inhibition rate (%) Sarcoma 180 (Sarcoma 180 [4]) [%] | Tumor inhibition rate (%) Lewis lung cancer (Lewis lung cancer [5]) [%] | Acute toxicity LD50 (KM mice [6]) [mg/kg] | Tumor inhibition rate (%) Lewis lung cancer (Lewis lung cancer [7]) [%] |
| --- | --- | --- | --- | --- | --- | --- | --- | --- | --- | --- | --- | --- | --- | --- | --- | --- |
| 232 to 232.8 | Cc1nccc2c3ccccc3n(CCCCn3c4ccccc4c4ccnc(-c5ccccc5Cl)c43)c12 [Compound 5i, 1–(2-chlorophenyl)-9–(4-(1-methyl-β-carboline-9-yl)butyl)-β-carboline] | 37.9 ± 4.2 | 18.8 to 97.6 | 28.3 ± 1.6 | 23.4 ± 4.1 | 23.9 ± 3.7 | 44.7 ± 3.6 | 95.5 ± 14.8 |  |  |  |  |  |  |  |  |
|  | COc1ccc2c3ccnc(C)c3n(CCCCn3c4ccccc4c4ccnc(-c5cccs5)c43)c2c1 [Compound 5w, 7-methoxy-1-methyl-9–(4-(1–(2-thienyl)-β-carboline-9-yl)butyl)-β-carboline] | 16.5 ± 1.9 | < 20 | 13.1 ± 3.5 | 15.4 ± 1.9 | 15.4 ± 2.7 | 13.1 ± 2.4 | 14.1 ± 1.4 | inhibited angiogenesis | + | 50 |  |  |  |  |  |
|  | COc1ccc2c3ccnc(C)c3n(CCCCCn3c4ccccc4c4ccnc(C)c43)c2c1 [Compound 5t, 7-methoxy-1-methyl-9–(5-(1-methyl-β-carboline-9-yl)pentyl)-β-carboline] | 42.7 ± 2.9 |  | 4.5 ± 0.6 | 51.9 ± 7.4 | 31.6 ± 2.2 | 3.1 ± 0.4 | 17.6 ± 3.4 |  | + | 35 | 37.2% and 37.2 ± 4.4% |  |  |  |  |
| 158.4 to 159.2 | Cc1nccc2c3ccccc3n(CCCCCn3c4ccccc4c4ccnc(-c5cccs5)c43)c12 [Compound 5g, 1–(2-thienyl)-9–(5-(1-methyl-β-carboline-9-yl)pentyl)-β-carboline] | 97.6 ± 12.4 | 18.8 to 97.6 | 32.3 ± 5.3 | 30.8 ± 3.2 | 18.8 ± 2.3 | 22.7 ± 1.4 | 75.5 ± 10.7 |  |  |  |  |  |  |  |  |
|  | Cc1nccc2c3ccccc3n(CCCCn3c4ccccc4c4ccnc(C)c43)c12 [Compound B-9-3, 1-Methyl-9-[4–(1-methyl-β-carboline-9-yl)butyl]-β-carboline, reference compound] | 22.3 ± 2.9 |  | 40.6 ± 5.8 | 14.5 ± 2.2 | > 100 | 6.1 ± 0.9 | 13.2 ± 1.5 |  |  |  |  | 56.2 | 40.4 | 200 |  |
|  | O=P1(N(CCCl)CCCl)NCCCO1 (centres unmarked) [CTX, Cyclophosphamide, reference compound] |  |  |  |  |  |  |  |  |  |  | 82.5 ± 3.4% |  |  |  | 80.7 ± 2.1 |
|  | Cc1nccc2c3ccccc3n(CCCCCn3c4ccccc4c4ccnc(-c5cccnc5)c43)c12 [Compound 5c, 1–(3-pyridyl)-9–(5-(1-methyl-β-carboline-9-yl)pentyl)-β-carboline] | 22.6 ± 1.9 |  | 13.3 ± 2.4 | 25.3 ± 3.2 | 10.5 ± 2.1 | 5.7 ± 1.2 | 15.3 ± 2.6 |  |  | 175 | 33.6% and 33.6 ± 9.2% |  |  |  |  |
|  | Cc1nccc2c3ccccc3n(CCCCn3c4ccccc4c4ccnc(-c5cccnc5)c43)c12 [Compound 5b, 1–(3-pyridyl)-9–(4-(1-methyl-β-carboline-9-yl)butyl)-β-carboline] | 12.1 ± 2.3 | < 20 | 12.6 ± 1.2 | 10.5 ± 1.3 | 15.9 ± 1.4 | 12.4 ± 2.1 | 8.4 ± 1.7 | could inhibit the angiogenesis of CAM; also recorded: inhibited angiogenesis | –^b | 150 |  |  |  |  |  |
| 238.5 to 239.6 | Cc1nccc2c3ccccc3n(CCCCCCn3c4ccccc4c4ccnc(-c5cccs5)c43)c12 [Compound 5h, 1–(2-thienyl)-9–(6-(1-methyl-β-carboline-9-yl)hexyl)-β-carboline] | > 100 |  | 47.8 ± 6.5 | 30.2 ± 3.4 | > 100 | 30.2 ± 1.5 | 75.9 ± 9.4 |  |  |  |  |  |  |  |  |
